Structures are written as SMILES. Where only a bound is given, the exact number is not on record here.

We go through 25 compounds from patent publication US12312333B2, “SK channel positive allosteric modulators” (Chapman University, priority 2021, dated 2025).

The assay concerns the target T1, rat KCa2.2a (UniProt P0DP23+P70604).
T1 construct: expressed in transfected cells; host or cells: HEK293
In words: Inside-out patch-clamp potentiation of KCa2.2a channels expressed in HEK293 cells. Particulars: for EC50 / activity / potency on KCa2.2a channels: inside-out patch; for EC50: HEK293, 0.15 μM Ca2+, current at −90 mV, read-out: EC50 (mean ± SEM, μM) on potentiating KCa2.2a channels; for efficacy (Emax) on KCa2.2a channels: normalized to 10 μM Ca2+. In kind it is cell-based. As for the experimental part:
The impact of adding one substituent group at C4 of the cyclohexane moiety of CyPPA with either electron donating (OH (2a), NH2 (2b), CH2OH (2c), and OCH3 (2d)) or electron-withdrawing groups (F (2e) and NO2 (2f)) was explored. The potency of the newly synthesized compounds compared to the template CyPPA was measured via inside-out patch clamp electrophysiology recordings with KCa2.2a channels heterologously expressed in HEK293 cells (FIG. 1A). […] The responses induced by 10 μM Ca^2+ are considered the maximal currents of the KCa2.2a channels. To evaluate the efficacy (Emax) of compounds on KCa2.2a channels, the current amplitudes at −90 mV in response to the maximal concentration of compounds were normalized to that obtained at 10 μM Ca^2+ (I/Imax (%), FIG. 1C).
The effect of newly synthesized compounds on the KCa2.x/KCa3.1 channels was investigated as previously described (Nam, Y. W.; et al, Acta Physiol (Oxf) 2020, e13552; Nam, Y. W.; et al. Scientific reports 2018, 8 (1), 10749). Briefly, the rat KCa2.2a, human KCa2.1, human KCa2.3 or human KCa3.1 channels cDNA constructs were either generated in-house or through molecular cloning services (Genscript). The channel cDNAs, along with CaM and GFP, at a ratio of 7:4:2 (ORF ratios), were transfected into HEK293 cells by the calcium-phosphate method. KCa currents were recorded 1-2 days after transfection, with an Axon200B amplifier (Molecular Devices) at room temperature. The resistance of the patch electrodes ranged from 3-5 MΩ. The pipette solution contained (in mM): 140 KCl, 10 Hepes (pH 7.4), 1 MgSO4. The bath solution containing (in mM): 140 KCl, 10 Hepes (pH 7.2), 1 EGTA, 0.1 Dibromo-BAPTA, and 1 HEDTA was mixed with Ca^2+ to obtain the desired free Ca^2+ concentrations, calculated using the software by Chris Patton of Stanford University (https://somapp.ucdmc.ucdavis.edu/pharmacology/bers/maxchelator/webmaxc/webmaxcS.htm). The Ca^2+ concentrations were verified using a Ca^2+ calibration buffer kit (Thermo Fisher Scientific). Briefly, a standard curve was generated using the Ca^2+ buffers from the kit and a fluorescence Ca^2+ indicator. Then, the Ca^2+ concentrations of the bath solution were determined through interpolation on the standard curve.
High resistance seals (>1 GΩ) were formed before inside-out patches were obtained. The seal resistance of inside-out patches was >1 GΩ, when the intracellular face was initially exposed to a zero-Ca^2+ bath solution. Currents were recorded by repetitive 1-s-voltage ramps from −100 mV to +100 mV from a holding potential of 0 mV. The currents were filtered at 2 kHz and digitized at a sampling frequency of 10 kHz. At the end of experiment, the integrity of the patch was examined by switching the bath solution back to the zero-Ca^2+ buffer. Data from patches, which maintained the seal resistance (>1 GΩ) after solution changes, were used for further analysis.
To measure the effect of CyPPA (Alomone Labs) and newly synthesized compounds, the intracellular face was exposed to bath solutions with 0.15 μM Ca^2+. One minute after switching of bath solutions, ten sweeps with a 1-s interval were recorded at a series of concentrations of compound in the presence of 0.15 μM Ca^2+. The maximal KCa2.x/KCa3.1 current in response to 10 μM Ca^2+ was then recorded.
Patch-clamp recordings were analyzed using Clampfit 10.5 (Molecular Devices LLC) and concentration-response curves were analyzed in GraphPad Prism 9.0.2 (GraphPad Software Inc.). To construct the concentration-dependent potentiation of channel activities by compound, the current amplitudes at −90 mV in response to various concentrations of the compound were normalized to that obtained at a maximal concentration of compound. The normalized currents were plotted as a function of the concentrations of the compound. EC50 values and Hill coefficients were determined by fitting the data points to a standard concentration-response curve (Y=100/(1+(X/EC50)^−Hill)). […]
In general terms: In patch-clamp work, channel activity is measured electrically.

Turning to `Cc1cc(NC2CCC(O)CC2)nc(-n2nc(C)cc2C)n1` (stereo not shown) [Compound 2a, 4-((2-(3,5-Dimethyl-1H-pyrazol-1-yl)-6-methylpyrimidin-4-yl)amino)cyclohexan-1-ol], the EC50 is more than 100 µM. In the case of `Cc1cc(NC2CCC(N)CC2)nc(-n2nc(C)cc2C)n1` (stereo not shown) [Compound 2b, N^1-(2-(3,5-Dimethyl-1H-pyrazol-1-yl)-6-methylpyrimidin-4-yl)cyclohexane-1,4-diamine], the EC50 was more than 100 µM. `Cc1cc(NC2CCC(CO)CC2)nc(-n2nc(C)cc2C)n1` (stereo not shown) [Compound 2c, (4-((2-(3,5-Dimethyl-1H-pyrazol-1-yl)-6-methylpyrimidin-4-yl)amino)cyclohexyl) methanol]: the EC50 is more than 100 µM.

As to `COC1CCC(Nc2cc(C)nc(-n3nc(C)cc3C)n2)CC1` (stereo not shown) [Compound 2d, 2-(3,5-Dimethyl-1H-pyrazol-1-yl)-N-(4-methoxycyclohexyl)-6-methylpyrimidin-4-amine], the EC50 is 49.7 ± 4.38 µM. The Emax (HEK293, current at −90 mV at maximal compound concentration normalized to 10 μM Ca2+, read-out: Emax on KCa2.2a channels (I/Imax)) was 77.3 ± 4.95%. Consider `Cc1cc(NC2CCC(F)CC2)nc(-n2nc(C)cc2C)n1` (stereo not shown) [Compound 2e, 2-(3,5-Dimethyl-1H-pyrazol-1-yl)-N-(4-fluorocyclohexyl)-6-methylpyrimidin-4-amine], for which the EC50 is more than 100 µM. Turning to `Cc1cc(NC2CCC([N+](=O)[O-])CC2)nc(-n2nc(C)cc2C)n1` (stereo not shown) [Compound 2f, 2-(3,5-Dimethyl-1H-pyrazol-1-yl)-6-methyl-N-(4-nitrocyclohexyl)pyrimidin-4-amine], the EC50 was more than 100 µM. Consider `Cc1cc(NCCc2ccc([N+](=O)[O-])cc2)nc(-n2nc(C)cc2C)n1` [Compound 2g, 2-(3,5-Dimethyl-1H-pyrazol-1-yl)-6-methyl-N-(4-nitrophenethyl)pyrimidin-4-amine], for which the EC50 was more than 100 µM. For the compound `Cc1cc(NC(Cc2ccc(C#N)cc2)C(=O)O)nc(-n2nc(C)cc2C)n1` (stereo not shown) [Compound 2h, 3-(4-Cyanophenyl)-2-((2-(3,5-dimethyl-1H-pyrazol-1-yl)-6-methylpyrimidin-4-yl)amino)propanoic acid], the EC50 is more than 100 µM.

For `Cc1cc(N[C@@H](Cc2ccc(O)cc2)C(=O)O)nc(-n2nc(C)cc2C)n1` [Compound 2i, (2-(3,5-Dimethyl-1H-pyrazol-1-yl)-6-methylpyrimidin-4-yl)tyrosine], the half-maximal effective concentration (EC50) is more than 100 µM. With `Cc1cc(NC(Cc2ccc(F)c(F)c2)C(=O)O)nc(-n2nc(C)cc2C)n1` (stereo not shown) [Compound 2j, 3-(3,4-Difluorophenyl)-2-((2-(3,5-dimethyl-1H-pyrazol-1-yl)-6-methylpyrimidin-4-yl)amino)propanoic acid], the EC50 was more than 100 µM.

Regarding `Cc1cc(Nc2ccc(S)cc2)nc(-n2nc(C)cc2C)n1` [Compound 2k, 4-((2-(3,5-Dimethyl-1H-pyrazol-1-yl)-6-methylpyrimidin-4-yl)amino)-benzenethiol], the EC50 is more than 100 µM. In addition, the “activity / potency on KCa2.2a channels” value (HEK293) was “inactive”. In the case of `Cc1cc(Nc2ccc([N+](=O)[O-])cc2)nc(-n2nc(C)cc2C)n1` [Compound 2l, 2-(3,5-Dimethyl-1H-pyrazol-1-yl)-6-methyl-N-(4-nitrophenyl)pyrimidin-4-amine], the EC50 was more than 100 µM. Under “HEK293”, the “activity / potency on KCa2.2a channels” value is “inactive”. For the compound `Cc1cc(Nc2cccc(F)c2F)nc(-n2nc(C)cc2C)n1` [Compound 2m, N-(2,3-Difluorophenyl)-2-(3,5-dimethyl-1H-pyrazol-1-yl)-6-methyl-pyrimidin-4-amine], the 50% effective concentration (EC50) was found to be 5.03 ± 0.59 µM. Still for that read-out and setting: the value for `Cc1cc(Nc2cc(F)ccc2F)nc(-n2nc(C)cc2C)n1` [Compound 2n, N-(2,5-Difluorophenyl)-2-(3,5-dimethyl-1H-pyrazol-1-yl)-6-methylpyrimidin-4-amine] was 1.89 ± 0.16 µM. With `Cc1cc(Nc2ccc(Cl)cc2F)nc(-n2nc(C)cc2C)n1` [Compound 2p, N-(4-Chloro-2-fluorophenyl)-2-(3,5-dimethyl-1H-pyrazol-1-yl)-6-methyl-pyrimidin-4-amine], the EC50 came out at 1.99 ± 0.11 µM. On the same count and under the same terms, for `Cc1cc(Nc2cc(F)ccc2Cl)nc(-n2nc(C)cc2C)n1` [Compound 2r, N-(2-Chloro-5-fluorophenyl)-2-(3,5-dimethyl-1H-pyrazol-1-yl)-6-methylpyrimidin-4-amine] the value was 2.97 ± 0.27 µM. As for `Cc1cc(Nc2ccc(C(F)(F)F)cc2)nc(-n2nc(C)cc2C)n1` [Compound 2s, 2-(3,5-Dimethyl-1H-pyrazol-1-yl)-6-methyl-N-(4-(trifluoromethyl)-phenyl)pyrimidin-4-amine], the EC50 was determined as 3.45 ± 0.42 µM. Also, the “activity / potency on KCa2.2a channels” value (HEK293) is “did not significantly change the potency compared with CyPPA”. As to `Cc1cc(Nc2ccc(C(F)(F)F)c(Cl)c2)nc(-n2nc(C)cc2C)n1` [Compound 2t, N-(3-Chloro-4-(trifluoromethyl)phenyl)-2-(3,5-dimethyl-1H-pyrazol-1-yl)-6-methyl-pyrimidin-4-amine], the 50% effective concentration (EC50) stood at 3.27 ± 0.3 µM. Turning to `Cc1cc(Nc2cc(Cl)cc(C(F)(F)F)c2)nc(-n2nc(C)cc2C)n1` [Compound 2u, N-(3-Chloro-5-(trifluoromethyl)phenyl)-2-(3,5-dimethyl-1H-pyrazol-1-yl)-6-methylpyrimidin-4-amine], the EC50 is more than 100 µM. The same measure, in the same setting: the value for `COc1cc2nc(Nc3cc(C)nc(-n4nc(C)cc4C)n3)[nH]c2cc1OC` [Compound 2w, N-(2-(3,5-Dimethyl-1H-pyrazol-1-yl)-6-methylpyrimidin-4-yl)-5,6-dimethoxy-1H-benzo[d]imidazol-2-amine] was more than 100 µM. For `Cc1cn(-c2nc(C)cc(Nc3cc(Cl)ccc3F)n2)cn1` [Compound 5a, N-(5-Chloro-2-fluorophenyl)-6-methyl-2-(4-methyl-1H-imidazol-1-yl)pyrimidin-4-amine], the concentration giving a half-maximal response (EC50) was found to be 4.51 ± 0.44 µM and the “efficacy (Emax) on KCa2.2a channels” value was “retained their efficacy”.

For `Cc1cn(-c2nc(C)cc(Nc3ccc(F)c(Cl)c3)n2)cn1` [Compound 5b, N-(3-Chloro-4-fluorophenyl)-6-methyl-2-(4-methyl-1H-imidazol-1-yl)pyrimidin-4-amine], the half-maximal effective concentration (EC50) is 38.8 ± 4.02 µM and the “efficacy (Emax) on KCa2.2a channels” value is “decreased compared with 2o”. Also, the “activity / potency on KCa2.2a channels” value (HEK293) is on record as “drastically reduced compared with 2o”. Consider `Cc1cc(Nc2cc(Cl)ccc2F)nc(-c2coc(C)n2)n1` [Compound 6a, N-(5-Chloro-2-fluorophenyl)-6-methyl-2-(2-methyloxazol-4-yl)pyrimidin-4-amine], for which the EC50 stood at 13.8 ± 1.68 µM and the “efficacy (Emax) on KCa2.2a channels” value was “retained their efficacy”. In addition, the “activity / potency on KCa2.2a channels” value (HEK293) is given as “lower potency than 2q”.

As to `Cc1cc(Nc2ccc(F)c(Cl)c2)nc(-c2coc(C)n2)n1` [Compound 6b, N-(3-Chloro-4-fluorophenyl)-6-methyl-2-(2-methyloxazol-4-yl)pyrimidin-4-amine], the concentration giving a half-maximal response (EC50) came out at 3.59 ± 0.33 µM and the “efficacy (Emax) on KCa2.2a channels” value is “retained their efficacy”. On to `Cc1cc(C)n(-c2cc(C)c(Nc3ccc(F)c(Cl)c3)nn2)n1` [Compound 7, N-(3-Chloro-4-fluorophenyl)-6-(3,5-dimethyl-1H-pyrazol-1-yl)-4-methylpyridazin-3-amine], for which the EC50 came to 4.32 ± 0.32 µM and the “efficacy (Emax) on KCa2.2a channels” value is “retaining their efficacy”. Further, where the note is “HEK293”, the “activity / potency on KCa2.2a channels” value was “reduced potency”.

The EC50 is the midpoint of the concentration-response curve.
